Laboratory results taken from patent US9040498B2, “1,2,3-Triazolyl purine derivatives” (RESEARCH FOUNDATION OF THE CITY UNIVERSITY OF NEW YORK, priority 2012, dated 2015).
Like-named read-outs stand apart in the source and are kept apart here.

Legend:
[1] = system: paclitaxel-resistant (PTX22) ovarian cancer cell line; assay: GI50 against paclitaxel-resistant ovarian cancer cell line PTX22; conditions: 96 h, read-out: GI50 PTX22
[2] = system: ovarian (1A9) cancer cell line; assay: GI50 against ovarian cancer cell line 1A9; conditions: 96 h, read-out: GI50 1A9
CMV AD-169 strain = assay: Anti-CMV activity in HEL cell cultures, AD-169 strain; format: cell-based, cytomegalovirus; conditions: Human betaherpesvirus 5, AD169; HEL cell cultures; reduce virus plaque formation by 50%; virus input 100 PFU
[3] = system: paclitaxel-resistant (PTX10) ovarian cancer cell line; assay: GI50 against paclitaxel-resistant ovarian cancer cell line PTX10; conditions: PTX10, 96 h, read-out: GI50 PTX10
[4] = system: murine leukemia L1210, human lymphocyte CEM, and HeLa cells; assay: Cytostatic activity against L1210, CEM and HeLa cells; format: cell-based
Method: The cytostatic effects of the test compounds on murine leukemia cells (L1210), human T-lymphocyte cells (CEM) and human cervix carcinoma cells (HeLa) were evaluated as follows: an appropriate number of cells suspended in growth medium were allowed to proliferate in 200-μL-wells of 96-well-microtiter plates in the presence of variable amounts of test compounds at 37° C. in a humidified CO2-controlled atmosphere. After 48 h (L1210), 72 h (CEM) or 96 h (HeLa), the number of cells was counted in a Coulter counter. The IC50 value is defined as the concentration required to inhibit cell proliferation by 50%.

HEL cell = HEL cell effects: cell morphology (minimum cytotoxic concentration); conditions: minimum cytotoxic concentration causing microscopically detectable alteration of cell morphology
[5] = system: colorectal (HCT116) cancer cell line; assay: GI50 against colorectal cancer cell line HCT116; conditions: Homo sapiens, HCT-116, 96 h, read-out: GI50 HCT116
CMV Davis strain = assay: Anti-CMV activity in HEL cell cultures, Davis strain; format: cell-based, cytomegalovirus; conditions: Human betaherpesvirus 5; HEL cell cultures; reduce virus plaque formation by 50%; virus input 100 PFU
[6] = system: p53KO HCT116 cancer cell line; assay: GI50 against p53KO HCT116 cancer cell line; conditions: Homo sapiens, HCT-116, 96 h, read-out: GI50 p53KO

For `OC[C@H]1O[C@@H](n2cnc3c(N4CCOCC4)nc(-n4cc(-c5ccccc5)nn4)nc32)[C@@H](O)C1O` (stereo partly drawn) [Compound 34, 6-(Morpholin-4-yl)-2-(4-phenyl-1,2,3-triazol-1H-yl)-9-(β-D-ribofuranosyl)purine], the GI50 [1] was 0.95 µM, the “minimum detectable morphology-altering (cytotoxic) concentration (MCC)” value (“minimum detectable morphology-altering” below) (green monkey kidney Vero) was 210 μM and the GI50 [2] was 0.18 µM. For the same compound, the “minimum detectable morphology-altering” value (canine kidney MDCK) was 8.3 μM, the EC50 (CMV AD-169 strain) was over 40 µM and the GI50 [3] was 11.7 µM. For the same compound, the “cytostatic activity (in words)” value ([4]; L1210, CEM, HeLa) was “poorly cytostatic”, the IC50 ([4]; range over L1210 (48 h), CEM (72 h), HeLa (96 h)) was 98 to 185 µM and the “HEL cell effects cell morphology (MDC)” value (HEL cell) was 240 μM. For the same compound, the “minimum detectable morphology-altering” value (HeLa; HeLa (first mention)) was 42 μM, the “minimum detectable morphology-altering” value (HeLa; HeLa cells) was at least 40 μM and the “minimum detectable morphology-altering” value (feline kidney CRFK) was 83 μM. It also gave a GI50 [5] of 3.7 µM, an EC50 (CMV Davis strain) of over 40 µM and a GI50 [6] of 10.4 µM.
